Target: T1, recombinant human mPGES-1 (Homo sapiens, UniProt O14684)
T1 construct: made in house; host or cells: Rosetta E. coli (membrane/microsome fraction)
T1 sequence (O14684 1-152): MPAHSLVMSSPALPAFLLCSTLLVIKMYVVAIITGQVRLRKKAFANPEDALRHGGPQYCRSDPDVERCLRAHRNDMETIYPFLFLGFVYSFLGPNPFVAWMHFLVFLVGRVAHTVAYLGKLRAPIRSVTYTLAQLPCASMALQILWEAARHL
Assay: mPGES-1 HTRF assay (inhibition of PGE2 formation from PGH2)
Format: biochemical
Conditions: HTRF assay; for inhibition at 10 µM: read-out: % inhibition
How it was run: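 Microsomes of E. coli expressing human mPGES-1, in 0.1 M KPi pH 7.4 with 2.5 mM GSH, preincubated 25 min at room temperature with inhibitor, then given PGH2 for 1 min before FeCl2 acidic stop. PGE2 quantified by HTRF (665/620 nm ratio) against synthetic PGE2 standard curve; percent inhibition versus controls.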

[1] = compound concentration of 10 μM

Structure (SMILES) | inhibition at 10 µM [1] | IC50 | other results
CC1(C(=O)NCc2ccc(Cl)c(Nc3nc4cc(C(=O)N5CCCC5)ccc4[nH]3)c2)CCCCC1 [Example 4, N-{4-Chloro-3-[5-(1-pyrrolidinylcarbonyl)-2-benzimidazolylamino]benzyl}-1-methylcyclohexylamide] | 83% |  | 
Cn1c(Nc2cc(CNC(=O)C3(C)CCCCC3)ccc2Cl)nc2cc(Cl)c(NC(=O)C3CCCC3)cc21 [Example 6, N-{4-chloro-3-[5-chloro-6-(cyclopentylamido)-1-methyl-2-benzimidazolylamino]benzyl}-1-methylcyclohexylamide] |  |  | % inhibition [1]: 100%
Cn1c(Nc2cc(CNC(=O)OC(C)(C)C)ccc2Cl)nc2cc(C(=O)Nc3ccc(Br)cc3)ccc21 [Example 34, tert-Butyl 3-[5-(4-bromophenylcarbamoyl)-1-methyl-2-benzimidazolylamino]-4-chlorobenzylcarbamate] | 100% |  | 
Cn1c(Nc2cc(CNC(=O)c3c(F)cccc3Cl)ccc2Cl)nc2cc(C(=O)Nc3ccc(Br)cc3)c(OCC(F)F)cc21 [Example 74, N-(4-Bromo-phenyl)-2-(2-chloro-5-{[(2-chloro-6-fluorophenylcarbonyl)-amino]-methyl}-phenylamino)-6-(2,2-difluoro-ethoxy)-1-methyl-1H-benzimidazole-5-carboxylic acid amide] |  | 4 nM | 
Cn1c(Nc2cc(CNC(=O)C(C)(C)C)ccc2Cl)nc2cc(C(=O)Nc3ccc(Br)cc3)ccc21 [Example 57, N-(4-Bromophenyl)-2-{2-chloro-5-[(tert.butylcarbonylamino)methyl]-phenylamino}-1-methylbenzimidazole-5-carboxamide] |  | 1 nM | 
Cn1c(Nc2cc(CNS(=O)(=O)c3cccs3)ccc2Cl)nc2cc(C(=O)Nc3ccc(Br)cc3)ccc21 [Example 44, N-(4-Bromophenyl)-2-{2-chloro-5-[(2-thienylsulfonamido)methyl]phenylamino}-1-methylbenzimidazole-5-carboxamide] | 100% |  | 

Further lines, with some results ahead:

inhibition at 10 µM [1] | IC50 | Structure (SMILES) | other results
100% |  | CSC1(C(=O)NCc2ccc(Cl)c(Nc3nc4cc(C(=O)Nc5ccc(Br)cc5)ccc4n3C)c2)CCCC1 [Example 47, N-(4-Bromophenyl)-2-{2-chloro-5-[(1-methylthiocyclopentylamido)-methyl]phenylamino}-1-methylbenzimidazole-5-carboxamide] | 
 | 2 nM | O=C(Nc1ccc(Br)cc1)c1cc2nc(Nc3cc(CNC(=O)C4(C(F)(F)F)CC4)ccc3Cl)[nH]c2cc1OCC(F)F [Example 67, N-(4-Bromo-phenyl)-2-(2-chloro-5-{[(1-trifluoromethyl-cyclopropanecarbonyl)-amino]-methyl}-phenylamino)-6-(2,2-difluoro-ethoxy)-1H-benzimidazole-5-carboxylic acid amide] | 
 | 7 nM | COc1cc2[nH]c(Nc3cc(CNC(=O)C(N)C(F)(F)F)ccc3C(F)(F)F)nc2cc1C(=O)N[C@H]1CC[C@H](C(F)(F)F)CC1 (stereo partly drawn) [Example 92, 2-({5-[(2-Amino-3,3,3-trifluoro-propionyl)amino]methyl}-2-trifluoromethyl-phenylamino)-6-methoxy-N-(trans-4-trifluoromethyl-cyclohex-1-yl)-1H-benzo[d]imidazole-5-carboxamide] | 
 | 1 nM | COc1cc2[nH]c(Nc3cc(CNC(=O)C4(C(F)(F)F)CC4)ccc3Cl)nc2cc1C(=O)Nc1ccc(Br)cc1 [Example 69, N-(4-Bromo-phenyl)-2-(2-chloro-5-{[(1-trifluoromethyl-cyclopropanecarbonyl)-amino]-methyl}-phenylamino)-6-methoxy-1H-benzimidazole-5-carboxylic acid amide] | 
 | 1 nM | Cn1c(Nc2cc(CNC(=O)C3(C(F)(F)F)CC3)ccc2Cl)nc2cc(C(=O)NCC3CC3)c(OCC(F)F)cc21 [Example 60, N-(Cyclopropylmethyl)-2-(2-chloro-5-{[(1-trifluoromethyl-cyclopropanecarbonyl)-amino]-methyl}-phenylamino)-6-(2,2-difluoro-ethoxy)-1-methyl-1H-benzimidazole-5-carboxylic acid amide] | 

From patent US8921405B2, “Compounds” (Orexo AB, priority 2009, dated 2014)
